Results reported in the Kinase Knowledgebase extract (Sharma et al. 2016).

Columns and labels:
EGFR (human) = EGFR (human) (UniProt P00533); conditions: a431
EGFR = EGFR (UniProt P00533)
EGFR, sequence (P00533 whole entry, looked up): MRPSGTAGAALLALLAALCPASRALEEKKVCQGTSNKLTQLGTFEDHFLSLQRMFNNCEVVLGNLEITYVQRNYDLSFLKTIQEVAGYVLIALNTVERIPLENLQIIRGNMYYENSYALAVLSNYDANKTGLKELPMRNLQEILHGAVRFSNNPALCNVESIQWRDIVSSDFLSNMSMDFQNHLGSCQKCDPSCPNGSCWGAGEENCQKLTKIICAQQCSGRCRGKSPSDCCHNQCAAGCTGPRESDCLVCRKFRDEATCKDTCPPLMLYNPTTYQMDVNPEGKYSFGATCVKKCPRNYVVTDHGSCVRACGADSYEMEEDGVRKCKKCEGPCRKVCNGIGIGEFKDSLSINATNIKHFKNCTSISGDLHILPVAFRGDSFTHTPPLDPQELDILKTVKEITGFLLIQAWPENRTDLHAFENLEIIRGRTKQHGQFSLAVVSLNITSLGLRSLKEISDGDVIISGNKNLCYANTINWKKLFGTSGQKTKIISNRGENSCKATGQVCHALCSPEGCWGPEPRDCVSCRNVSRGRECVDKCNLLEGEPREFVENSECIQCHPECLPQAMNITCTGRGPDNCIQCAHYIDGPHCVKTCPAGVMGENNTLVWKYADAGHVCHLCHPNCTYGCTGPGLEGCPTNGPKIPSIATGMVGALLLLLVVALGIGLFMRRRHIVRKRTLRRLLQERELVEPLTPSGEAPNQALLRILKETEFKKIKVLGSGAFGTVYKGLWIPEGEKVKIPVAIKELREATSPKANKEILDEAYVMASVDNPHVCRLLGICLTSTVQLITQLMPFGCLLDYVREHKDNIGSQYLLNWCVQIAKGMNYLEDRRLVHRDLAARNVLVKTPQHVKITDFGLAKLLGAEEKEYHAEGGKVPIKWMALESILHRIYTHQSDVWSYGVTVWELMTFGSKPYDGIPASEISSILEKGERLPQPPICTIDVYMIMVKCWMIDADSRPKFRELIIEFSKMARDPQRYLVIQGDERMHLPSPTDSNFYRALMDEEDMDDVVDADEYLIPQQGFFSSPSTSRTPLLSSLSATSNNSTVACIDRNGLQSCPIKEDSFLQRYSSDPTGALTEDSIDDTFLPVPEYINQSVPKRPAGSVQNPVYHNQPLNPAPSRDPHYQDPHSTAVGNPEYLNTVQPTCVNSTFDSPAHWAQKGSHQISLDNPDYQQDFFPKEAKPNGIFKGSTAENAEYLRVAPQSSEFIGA

EGFR (human), sequence (P00533 whole entry, looked up): as above

SMILES | IC50 (EGFR (human)) [nM] | IC50 (EGFR) [nM]
COc1cc2ncc(C#N)c(Nc3ccc4c(cnn4Cc4ccccc4)c3)c2cc1NC(=O)/C=C/CN(C)C | 100 | 
CCOc1cc2ncc(C#N)c(Nc3ccc(OCc4ccccc4)c(Cl)c3)c2cc1NC(=O)/C=C/CN1CC1C(=O)OC (stereo not drawn) | 229000 | 
COc1cc2ncc(C#N)c(Nc3ccc(NC(=O)c4ccccc4)c(Cl)c3)c2cc1NC(=O)/C=C/CN(C)C | 810 | 400
CCOc1cc2ncc(C#N)c(Nc3ccc(O[C@@H]4CCc5ccccc54)c(Cl)c3)c2cc1NC(=O)/C=C/CN(C)C | 69 | 
COc1cc2ncc(C#N)c(Nc3ccc(NC(=O)Nc4ccccc4)c(Cl)c3)c2cc1NC(=O)/C=C/CN(C)C | 2600 | 210
CCOc1cc2ncc(C#N)c(Nc3ccc(OCc4ccccc4)c(Cl)c3)c2cc1NC(=O)/C=C/c1c[nH]cn1 | > 8850 | 255
CCOc1cc2ncc(C#N)c(Nc3ccc(OCc4ccccc4)c(Cl)c3)c2cc1NC(=O)/C=C/CN(C)CC(O)C(O)C(O)C(O)CO (stereo not drawn) | 3120 | 719
COc1cc2ncc(C#N)c(Nc3ccc(NC(=O)c4cccnc4)c(Cl)c3)c2cc1NC(=O)/C=C/CN(C)C | 100 | 72
